From patent US20220089540A1 (Board of Trustees of Michigan State University, priority 2019, published 2022)
Where “and” joins values, the source holds several entries; their conditions need not be identical. Equal entries are not always repeated.

How the values were obtained:
[1] = system: PD-L1; experiment: PD-L1 induction in macrophages or RAW264.7 cells with cancer cell conditioned media (flow cytometry); format: cell-based, mouse; settings: for PD-L1 Levels: Table 4, Control 43.3
Procedure: RAW 264.7 mouse macrophage-like (ATCC) and E18-14C-27 (Wu et al., Cancer Res. 62, 6376-6380 (2002)) cells were cultured in DMEM supplemented with 10% fetal bovine serum (FBS). RAW 264.7 cells were cultured at 50000/well in a 6 well plate for 24 hours to determine PD-L1 levels. E18-14C-27 cells were cultured for 72 hours in the presence of LG268 for protein levels. Conditioned media was collected from E18-14C-27 at 60-70% confluence for 24 hours; media was then collected and centrifuged at 900 rpm for 5 minutes to eliminate any cell debris.
For PD-L1 staining, RAW 264.7 cells were plated at 25000 cells/ml in 6 well plates for 24 hours before adding conditioned media from E18-14C-27 and LG268. RAW 264.7 cells were cultured for additional 24 hours with E18-14C-27 conditioned media and LG268. […] THP-1 cells were stained and analyzed for the levels of PD-L1 following the same protocol.
Inhibitory receptors on lymphocytes such as PD-1 (programmed cell death protein 1) are important immune checkpoints that protect against autoimmunity as the interaction between PD-L1 (ligand) and the PD-1 receptor expressed on immune cells suppresses T cell activity. Immuno-oncology is revolutionizing cancer treatment, and enormous research efforts are ongoing to identify drugs that upregulate PD-L1 so that they can be combined with checkpoint inhibitors to boost efficacy. Macrophages or RAW264.7 cells are treated with conditioned media from cancer cells and rexinoids, and PD-L1 expression determined by flow cytometry. Higher numbers indicate better upregulation of PD-LI.
Using methods described herein, macrophages or RAW264.7 cells were treated with selected rexinoids and with conditioned media from cancer cells. Structures of the rexinoids are shown below.
PD-L1 expression was determined by flow cytometry.

[2] = system: inducible nitric oxide synthase (iNOS); experiment: iNOS suppression / NO assay in LPS-stimulated macrophages or RAW264.7 cells (Griess reaction); format: cell-based, mouse
Method in brief: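 RAW264.7 cells or macrophages incubated with rexinoids (300 nM, or 100 nM/300 nM, or a concentration series) and stimulated with 1–2 ng/ml LPS for 24 h. Nitric oxide released into medium measured by Griess reaction; values given as percent of LPS-stimulated control, % inhibition, or IC50.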

[3] = system: SREBP; experiment: SREBP induction in human liver (HepG2) cells, RT-PCR; format: cell-based; design: key to SREBP: fold induction vs DMSO control
Procedure: The SREBP transcription factor is involved in triglyceride synthesis, and its activation correlates with increased triglycerides in vivo. […] Lower numbers indicate better safety. […] Lower numbers indicate better safety. Also, for Table 6, SREBP activation was measured as fold induction compared to DMSO, where a lower value indicates the compound is an improvement over a control.

[4] = system: Lung Cancer Model; experiment: Lung cancer model rank order; format: in vivo
[5] = Triglycerides in rodent models; format: in vivo
[6] = system: RAR receptor; settings: cited from earlier work
[7] = system: mammary gland tumors of MMTV-Neu mice; experiment: MMTV-Neu mouse model of HER2 positive breast cancer, rexinoid in diet; settings: 100 mg/kg diet, LG268 5 days
Procedure: Tumors or mammary glands were homogenized in EBC buffer (1M Tris pH 8, 5M NaCl) with the same protease inhibitors and 10% NP-40 and incubated on ice for 30 min. Protein concentrations were determined by the BCA assay (Sigma-Aldrich). Proteins were resolved by SDS-PAGE, transferred to a nitrocellulose membrane and analyzed with the following antibodies: vinculin, p-STAT1, p-STAT3, p-STAT5 and mouse and rabbit secondary antibodies (Cell Signaling); PD-1, CD206 (Abcam); PD-L1 (R&D). ImageJ was used to quantify the immunoblots, and results were plotted and statistically analyzed using Prism 6. All images shown are representative of 3 independent experiments.
One third of the tumor, mammary gland and spleen removed from MMTV-neu or MMTV-PyMT mice were minced separately and incubated in digestion media consisting of collagenase (300 U/ml, Sigma), dispase (1 U/ml, Worthington), and DNAse (2 U/ml, Calbiochem) for 30 minutes at 37° C. with stirring. Cells were then passed through a 40 μm cell strainer (BD Falcon), and red blood cells eliminated with lysis solution. […] Propidium iodide staining was used to exclude dead cells.
One third of the tumor, spleen and one mammary was removed from MMTV-neu and PyMT mice and fixed in 10% phosphate-buffered formalin for 48 hours, embedded in paraffin blocks, and sectioned (5-6 μm). Hydrogen peroxide was used to quench endogenous peroxidase activity. Sections were immunostained with antibodies raised against CD206 (1:200, Abcam), Gr1 (1:40, BM8, R&D), CD8 (1:40, Biolegend), FOXP3 (1:50, EBiosciences), PD-1 (1:100, Abcam), PD-L1 (1:50, Abcam), cleaved caspase 3 (Cell Signaling) and visualized with biotinylated anti-rabbit or anti-rat secondary antibodies (Cell Signaling or Vector Labs). Signal was detected using a DAB substrate (Cell Signaling) following the manufacturer's recommendations. Sections were counterstained with hematoxylin (Vector Labs).
Both rexinoid treatments were 100 mg/kg of diet, which is equivalent to 25 mg/kg of body weight (FIG. 1B).

[8] = bexarotene 10 days, western blot

C=C(c1ccc(C(=O)O)cc1)c1cc2c(cc1C)C(C)(C)CCC2(C)C [Bexarotene, bexarotene]
PD-L1 ([1]; 100 nM, Table 2, Control 39.8, higher numbers indicate better upregulation): 58.5
PD-L1 Levels ([1]; 100 nM): 51.2
PD-L1 Levels ([1]; 1000 nM): 64
PD-L1 levels in RAW 264.7 cells with E18-14C-27C conditioned media ([1]; 24 hours): no changes
activity at 0.1 µM ([2]; Mus musculus, RAW264.7, 24 h, at 100 nM, percent of the LPS-stimulated control, lower is better, Table 6): 30 to 35%
activity at 0.125 µM ([2]; Mus musculus, RAW264.7, 125 nM, Control 100, lower numbers indicate higher efficacy, read-out: NO Assay): 78%
activity at 0.5 µM ([2]; Mus musculus, RAW264.7, 500 nM, Control 100, lower numbers indicate higher efficacy, read-out: NO Assay): 32.4%
iNOS ([2]; at 100 nM, comparators of Table 3): 22-40% at 100 nM
SREBP ([3]; 300 nM, Control 1.00, lower numbers indicate better safety, Table 2): 2.13
SREBP activation ([3]; fold induction compared to DMSO, several values per cell, Table 6): 2.7 fold induction and 2.9 fold induction and 1.95 fold induction
Lung Cancer Model Rank Order [4]: 5
Triglyccerides (Rodent Models) [5]: Elevated
binding to the RAR receptor [6]: limited RAR binding
PD-L1 expression in tumors vs control ([7]; CW-V-125 10 days, western blot and/or immunohistochemistry): did not significantly induce
myeloid derived suppressor cells (CD45+, CD11b+, Gr1+) in tumors ([7]; bexarotene 10 days, control 1.9%): did not alter
mammary tumor size (tumor weight as percentage of total body weight) ([7]; bexarotene 10 days, control diet 3.2%): did not reduce
cleaved caspase 3 in tumors ([7]; bexarotene 10 days, immunohistochemistry): did not increase
reduction of CD206 expression in tumor lysates [7, 8]: did not induce a change
reduction of p-STAT1 expression in whole tumor lysates [7, 8]: no changes
